Consider 23 compounds from patent US11518739B2, “Sulfonamide carboxamide compounds” (Inflazome Limited, priority 2017, dated 2022).

Structures can show the parent of a compound that is named as a salt.

The target of experiment [1] is T1, NLRP3 (Homo sapiens, UniProt Q96P20). The experiment in a line: THP-1 cells pyroptosis assay (LPS-primed, nigericin-triggered, resazurin readout). It counts as cell-based. The arrangement: Seed THP-1 cells (25,000 cells/well) containing 1.0 μg/ml LPS in 40 μl of RPMI medium; host or cells: THP-1 cells, LPS-primed, nigericin-triggered. The conditions noted are these: NLRP3 inhibitory activity in THP-1 cells, 1.0 μg/ml LPS, 5 μM nigericin. As for the experimental part:
THP-1 cells (ATCC #TIB-202) were grown in RPMI containing L-glutamine (Gibco #11835) supplemented with ImM sodium pyruvate (Sigma #S8636) and penicillin (100 units/ml)/streptomycin (0.1 mg/ml) (Sigma #P4333) in 10% Fetal Bovine Serum (FBS) (Sigma #F0804). The cells were routinely passaged and grown to confluency ([…]). On the day of the experiment, THP-1 cells were harvested and resuspended into RPMI medium (without FBS). The cells were then counted and viability (>90%) checked by Trypan blue (Sigma #T8154). Appropriate dilutions were made to give a concentration of 625,000 cells/ml. To this diluted cell solution was added LPS (Sigma #L4524) to give a 1 μg/ml Final Assay Concentration (FAC). […] of the final preparation was aliquoted into each well of a 96-well plate. The plate thus prepared was used for compound screening.
The following method step-by-step assay was followed for compound screening. • 1. Seed THP-1 cells (25,000 cells/well) containing 1.0 μg/ml LPS in 40 μl of RPMI medium (without FBS) in 96-well, black walled, clear bottom cell culture plates coated with poly-D-lysine (VWR #734-0317) • 2. Add 5 μl compound (8 points half-log dilution, with 10 μM top dose) or vehicle (DMSO 0.1% FAC) to the appropriate wells • 3. Incubate for 3 hrs at 37° C. in 5% CO2 • 4. Add 5 μl nigericin (Sigma #N7143) (FAC 5 μM) to all wells • 5. Incubate for 1 hr at 37° C. and 5% CO2 • 6. At the end of the incubation period, spin plates at 300×g for 3 mins and remove supernatant • 7. Then add 50 μl of resazurin (Sigma #R7017) (FAC 100 μM resazurin in RPMI medium without FBS) and incubate plates for a further 1-2 hrs at 37° C. and 5% CO2 • 8. Plates were read in an Envision reader at Ex 560 nm and Em 590 nm • 9. IC50 data is fitted to a non-linear regression equation (log inhibitor vs response-variable slope 4-parameters)

In experiment [2] the target is T1, NLRP3. The experiment in a line: Human whole blood IL-1β release assay (LPS + nigericin, AlphaLisa). The settings on record: NLRP3 inhibitory activity in human whole blood, 1 μg/ml LPS, 10 μM nigericin, read-out: HWB IC50. It is filed as cell-based. The arrangement: Plate out 80 μl of whole blood containing 1 μg/ml of LPS in 96-well, clear bottom cell culture plate; from tissue; host or cells: human whole blood from healthy donors (Li-heparin). As for the experimental part: For systemic delivery, the ability to inhibit NLRP3 when the compounds are present within the bloodstream is of great importance. For this reason, the NLRP3 inhibitory activity of a number of compounds in human whole blood was investigated in accordance with the following protocol.
Human whole blood in Li-heparin tubes was obtained from healthy donors from a volunteer donor panel. • 1. Plate out 80 μl of whole blood containing 1 μg/ml of LPS in 96-well, clear bottom cell culture plate (Corning #3585) • 2. Add 10 μl compound (8 points half-log dilution with 10 μM top dose) or vehicle (DMSO 0.1% FAC) to the appropriate wells • 3. Incubate for 3 hrs at 37° C., 5% CO2 • 4. Add 10 μl nigericin (Sigma #N7143) (10 μM FAC) to all wells • 5. Incubate for 1 hr at 37° C., 5% CO2 • 6. At the end of the incubation period, spin plates at 300×g for 5 mins to pellet cells and remove 20 μl of supernatant and add to 96-well v-bottom plates for IL-1β analysis (note: these plates containing the supernatants can be stored at −80° C. to be analysed at a later date) • 7. IL-1β was measured according to the manufacturer protocol (Perkin Elmer-AlphaLisa IL-1 Kit AL220F-5000) • 8. IC50 data is fitted to a non-linear regression equation (log inhibitor vs response-variable slope 4-parameters)

T1 sequence (Q96P20 whole entry): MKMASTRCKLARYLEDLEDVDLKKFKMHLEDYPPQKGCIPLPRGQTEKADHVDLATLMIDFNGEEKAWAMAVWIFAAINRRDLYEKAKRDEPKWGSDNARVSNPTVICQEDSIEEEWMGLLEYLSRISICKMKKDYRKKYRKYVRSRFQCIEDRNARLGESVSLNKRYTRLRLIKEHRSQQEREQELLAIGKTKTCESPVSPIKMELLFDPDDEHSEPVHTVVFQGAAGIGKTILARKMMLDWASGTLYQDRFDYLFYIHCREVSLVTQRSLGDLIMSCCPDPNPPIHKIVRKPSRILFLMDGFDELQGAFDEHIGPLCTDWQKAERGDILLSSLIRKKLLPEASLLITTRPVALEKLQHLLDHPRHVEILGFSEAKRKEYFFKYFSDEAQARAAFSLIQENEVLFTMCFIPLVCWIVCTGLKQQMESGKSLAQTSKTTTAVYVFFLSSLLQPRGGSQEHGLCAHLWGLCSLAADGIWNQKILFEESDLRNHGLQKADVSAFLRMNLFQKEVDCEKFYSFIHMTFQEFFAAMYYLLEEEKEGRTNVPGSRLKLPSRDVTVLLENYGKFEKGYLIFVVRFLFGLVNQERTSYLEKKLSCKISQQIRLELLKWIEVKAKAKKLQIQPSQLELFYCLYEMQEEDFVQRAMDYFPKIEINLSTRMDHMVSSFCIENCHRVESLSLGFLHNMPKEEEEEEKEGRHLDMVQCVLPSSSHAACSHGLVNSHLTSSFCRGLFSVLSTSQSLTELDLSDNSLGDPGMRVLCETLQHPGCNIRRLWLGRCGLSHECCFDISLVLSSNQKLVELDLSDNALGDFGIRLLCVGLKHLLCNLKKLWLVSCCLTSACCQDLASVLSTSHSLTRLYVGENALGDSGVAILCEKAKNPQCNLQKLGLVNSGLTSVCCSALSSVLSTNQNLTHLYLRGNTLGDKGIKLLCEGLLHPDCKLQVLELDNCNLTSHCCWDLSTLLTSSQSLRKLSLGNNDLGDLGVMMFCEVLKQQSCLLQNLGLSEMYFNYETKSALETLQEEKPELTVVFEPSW

For the compound `Cc1ccc(CS(=O)(=O)NC(=O)Nc2c3c(cc4c2CCC4)CCC3)cc1` [Example 14, N-((1,2,3,5,6,7-Hexahydro-s-indacen-4-yl)carbamoyl)-1-(p-tolyl)methanesulfonamide, Sodium Salt], the IC50 on NLRP3 [1] is at most 1 µM; at NLRP3 [2], 5 to 7.5 µM.

Turning to `Cc1cccc(CS(=O)(=O)NC(=O)Nc2c3c(cc4c2CCC4)CCC3)c1` [Example 20, N-((1,2,3,5,6,7-Hexahydro-s-indacen-4-yl)carbamoyl)-1-(m-tolyl)methanesulfonamide, Sodium Salt], the IC50 on NLRP3 [1] is at most 1 µM; at NLRP3 [2], 5 to 7.5 µM.

Regarding `O=C(Nc1c2c(cc3c1CCC3)CCC2)NS(=O)(=O)Cc1ccc(Cl)cc1` [Example 5, 1-(4-Chlorophenyl)-N-((1,2,3,5,6,7-hexahydro-s-indacen-4-yl)carbamoyl)methanesulfonamide, Sodium Salt], the IC50 on NLRP3 [1] was at most 1 µM; at NLRP3 [2] it was 5 to 7.5 µM.

`COC(=O)c1ccccc1CS(=O)(=O)NC(=O)Nc1c2c(cc3c1CCC3)CCC2` [Example 18, Methyl 2-((N-((1,2,3,5,6,7-hexahydro-s-indacen-4-yl)carbamoyl)sulfamoyl)methyl)benzoate] registered an IC50 against NLRP3 [1] of at most 1 µM.

Consider `O=C(Nc1c2c(cc3c1CCC3)CCC2)NS(=O)(=O)Cc1ccccc1Cl` [Example 15, 1-(2-Chlorophenyl)-N-((1,2,3,5,6,7-hexahydro-s-indacen-4-yl)carbamoyl)methanesulfonamide, Sodium Salt], for which the figures for the IC50 at NLRP3 [1] and on NLRP3 [2] were at most 1 µM and over 10 µM, respectively.

`CC(c1ccccc1)S(=O)(=O)NC(=O)Nc1c2c(cc3c1CCC3)CCC2` (stereo not drawn) [Example 39, N-((1,2,3,5,6,7-Hexahydro-s-indacen-4-yl)carbamoyl)-1-phenylethanesulfonamide]: the figures for the IC50 against NLRP3 [1] and on NLRP3 [2] were at most 1 µM and 7.5 to 10 µM, respectively.

At NLRP3 [1], `O=C(Nc1c2c(cc3c1CCC3)CCC2)NS(=O)(=O)Cc1ccccc1Br` [Example 17, 1-(2-Bromophenyl)-N-((1,2,3,5,6,7-hexahydro-s-indacen-4-yl)carbamoyl)methanesulfonamide, Sodium Salt] had an IC50 of at most 1 µM.

With `[N-]=[N+]=NCCCS(=O)(=O)NC(=O)Nc1c2c(cc3c1CCC3)CCC2` [Example 21, 3-Azido-N-((1,2,3,5,6,7-hexahydro-s-indacen-4-yl)carbamoyl) propane-1-sulfonamide, Potassium Salt], the IC50 is at most 1 µM against NLRP3 [1] and at most 5 µM on NLRP3 [2].

As to `COc1cccc(CS(=O)(=O)NC(=O)Nc2c3c(cc4c2CCC4)CCC3)c1` [Example 11, N-((1,2,3,5,6,7-Hexahydro-s-indacen-4-yl)carbamoyl)-1-(3-methoxyphenyl)methanesulfonamide, Sodium Salt], the IC50 on NLRP3 [1] was at most 1 µM; on NLRP3 [2] it was 7.5 to 10 µM.

Consider `N#Cc1ccc(CS(=O)(=O)NC(=O)Nc2c3c(cc4c2CCC4)CCC3)cc1` [Example 8, 1-(4-Cyanophenyl)-N-((1,2,3,5,6,7-hexahydro-s-indacen-4-yl)carbamoyl)methanesulfonamide, Sodium Salt], for which the IC50 was at most 1 µM at NLRP3 [1] and at most 5 µM at NLRP3 [2].

As to `O=C(Nc1c(-c2ccncc2)cc(F)c2c1CCC2)NS(=O)(=O)CCc1ccccc1` [Example 33, N-((7-Fluoro-5-(pyridin-4-yl)-2,3-dihydro-1H-inden-4-yl)carbamoyl)-2-phenylethanesulfonamide], the IC50 on NLRP3 [2] was 5 to 7.5 µM.

Turning to `O=C(Nc1c2c(cc3c1CCC3)CCC2)NS(=O)(=O)Cc1ccccc1` [Example 1, N-((1,2,3,5,6,7-Hexahydro-s-indacen-4-yl)carbamoyl)-1-phenyl Methanesulfonamide, Potassium Salt], the values for the IC50 against NLRP3 [1] and on NLRP3 [2] were at most 1 µM and at most 5 µM, respectively.

With `O=C(Nc1c2c(cc3c1CCC3)CCC2)NS(=O)(=O)Cc1ccc(Cl)cc1F` [Example 12, 1-(4-Chloro-2-fluorophenyl)-N-((1,2,3,5,6,7-hexahydro-s-indacen-4-yl)carbamoyl)methanesulfonamide, Sodium Salt], the IC50 at NLRP3 [1] is at most 1 µM; on NLRP3 [2], over 10 µM.

In turn, `CC(C)CS(=O)(=O)NC(=O)Nc1c2c(cc3c1CCC3)CCC2` [Example 2, N-((1,2,3,5,6,7-Hexahydro-s-indacen-4-yl)carbamoyl)-2-methylpropane-1-sulfonamide, Potassium Salt] displayed an IC50 against NLRP3 [1] of at most 1 µM.

`O=C(Nc1c2c(cc3c1CCC3)CCC2)NS(=O)(=O)Cc1ccc(F)cc1` [Example 7, 1-(4-Fluorophenyl)-N-((1,2,3,5,6,7-hexahydro-s-indacen-4-yl)carbamoyl)methanesulfonamide, Sodium Salt]: the IC50 is at most 1 µM on NLRP3 [1] and at most 5 µM at NLRP3 [2].

Consider `O=C(Nc1c2c(cc3c1CCC3)CCC2)NS(=O)(=O)Cc1ccc(Cl)c(Cl)c1` [Example 6, 1-(3,4-Dichlorophenyl)-N-((1,2,3,5,6,7-hexahydro-s-indacen-4-yl)carbamoyl)methanesulfonamide, Sodium Salt], for which the IC50 against NLRP3 [1] was at most 1 µM; at NLRP3 [2] it was over 10 µM.

`O=C(Nc1c2c(cc3c1CCC3)CCC2)NS(=O)(=O)CCc1ccccc1` [Example 40, N-((1,2,3,5,6,7-Hexahydro-s-indacen-4-yl)carbamoyl)-2-phenylethanesulfonamide]: the IC50 is at most 1 µM on NLRP3 [1] and over 10 µM on NLRP3 [2].

In the case of `COC(=O)c1ccc(CS(=O)(=O)NC(=O)Nc2c3c(cc4c2CCC4)CCC3)cc1` [Example 9, Methyl 4-((N-((1,2,3,5,6,7-hexahydro-s-indacen-4-yl)carbamoyl)sulfamoyl)methyl)benzoate, Sodium Salt], the IC50 against NLRP3 [1] is at most 1 µM; at NLRP3 [2] it was at most 5 µM.

At NLRP3 [1], `CC(C)c1cc(F)cc(-c2ccnc(C#N)c2)c1NC(=O)NS(=O)(=O)C(C)c1ccccc1` (stereo not drawn) [Example 34, N-((2-(2-Cyanopyridin-4-yl)-4-fluoro-6-isopropylphenyl)carbamoyl)-1-phenylethanesulfonamide] displayed a 50% inhibitory concentration (IC50) of 2 to 10 µM.

As to `C=CS(=O)(=O)NC(=O)Nc1c2c(cc3c1CCC3)CCC2` [Example 3, N-((1,2,3,5,6,7-Hexahydro-s-indacen-4-yl)carbamoyl)ethenesulfonamide], the IC50 against NLRP3 [1] was at most 1 µM; at NLRP3 [2], at most 5 µM.

Turning to `O=C(Nc1c2c(cc3c1CCC3)CCC2)NS(=O)(=O)Cc1cc(Cl)cc(Cl)c1` [Example 4, 1-(3,5-Dichlorophenyl)-N-((1,2,3,5,6,7-hexahydro-s-indacen-4-yl)carbamoyl)methanesulfonamide, Sodium Salt], the IC50 is at most 1 µM against NLRP3 [1] and over 10 µM on NLRP3 [2].

Regarding `O=C(Nc1c2c(cc3c1CCC3)CCC2)NS(=O)(=O)Cc1ccccc1C(F)(F)F` [Example 16, N-((1,2,3,5,6,7-Hexahydro-s-indacen-4-yl)carbamoyl)-1-(2-(trifluoromethyl)phenyl)methanesulfonamide, Sodium Salt], on NLRP3 [1], the IC50 was at most 1 µM.

`O=C(Nc1c(-c2ccncc2)cc(F)c2c1CCC2)NS(=O)(=O)Cc1ccccc1` [Example 25, N-((7-Fluoro-5-(pyridin-4-yl)-2,3-dihydro-1H-inden-4-yl)carbamoyl)-1-phenylmethanesulfonamide]: the IC50 at NLRP3 [1] fell in the range of 2 to 10 µM.
